17 molecules from ChEMBL document CHEMBL3991601, “The target landscape of clinical kinase drugs” (Science, 2017) can be followed below.

The source made the active and inactive calls.

Assay [1] concerns the target T1, Cytochrome c1, heme protein, mitochondrial (Homo sapiens, UniProt P08574).
T1 sequence (P08574 whole entry): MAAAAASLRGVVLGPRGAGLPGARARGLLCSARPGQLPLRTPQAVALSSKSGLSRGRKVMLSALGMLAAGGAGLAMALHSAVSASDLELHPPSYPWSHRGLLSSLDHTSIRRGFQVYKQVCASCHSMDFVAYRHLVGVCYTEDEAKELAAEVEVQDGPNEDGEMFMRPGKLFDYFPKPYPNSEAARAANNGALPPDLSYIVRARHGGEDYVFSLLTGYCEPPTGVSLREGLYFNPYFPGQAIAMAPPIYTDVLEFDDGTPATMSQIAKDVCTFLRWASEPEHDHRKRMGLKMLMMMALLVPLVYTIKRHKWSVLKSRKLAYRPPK

Assay [2] has as its target T2, Serine/threonine-protein kinase Nek2 (Homo sapiens, UniProt P51955).
T2 sequence (P51955 whole entry): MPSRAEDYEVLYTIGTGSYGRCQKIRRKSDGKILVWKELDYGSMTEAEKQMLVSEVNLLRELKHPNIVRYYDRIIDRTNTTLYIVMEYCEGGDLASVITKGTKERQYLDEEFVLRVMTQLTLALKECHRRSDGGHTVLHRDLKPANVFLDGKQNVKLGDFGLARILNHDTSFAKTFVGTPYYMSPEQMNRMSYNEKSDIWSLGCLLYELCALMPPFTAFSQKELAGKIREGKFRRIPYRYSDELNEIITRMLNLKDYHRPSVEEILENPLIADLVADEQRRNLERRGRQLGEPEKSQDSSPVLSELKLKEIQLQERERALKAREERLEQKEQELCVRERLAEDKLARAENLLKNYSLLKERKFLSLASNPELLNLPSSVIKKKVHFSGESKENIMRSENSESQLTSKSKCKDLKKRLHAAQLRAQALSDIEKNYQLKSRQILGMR

Assay [3] has as its target T3, cGMP-dependent protein kinase 1 (Homo sapiens, UniProt Q13976).
T3 sequence (Q13976 whole entry): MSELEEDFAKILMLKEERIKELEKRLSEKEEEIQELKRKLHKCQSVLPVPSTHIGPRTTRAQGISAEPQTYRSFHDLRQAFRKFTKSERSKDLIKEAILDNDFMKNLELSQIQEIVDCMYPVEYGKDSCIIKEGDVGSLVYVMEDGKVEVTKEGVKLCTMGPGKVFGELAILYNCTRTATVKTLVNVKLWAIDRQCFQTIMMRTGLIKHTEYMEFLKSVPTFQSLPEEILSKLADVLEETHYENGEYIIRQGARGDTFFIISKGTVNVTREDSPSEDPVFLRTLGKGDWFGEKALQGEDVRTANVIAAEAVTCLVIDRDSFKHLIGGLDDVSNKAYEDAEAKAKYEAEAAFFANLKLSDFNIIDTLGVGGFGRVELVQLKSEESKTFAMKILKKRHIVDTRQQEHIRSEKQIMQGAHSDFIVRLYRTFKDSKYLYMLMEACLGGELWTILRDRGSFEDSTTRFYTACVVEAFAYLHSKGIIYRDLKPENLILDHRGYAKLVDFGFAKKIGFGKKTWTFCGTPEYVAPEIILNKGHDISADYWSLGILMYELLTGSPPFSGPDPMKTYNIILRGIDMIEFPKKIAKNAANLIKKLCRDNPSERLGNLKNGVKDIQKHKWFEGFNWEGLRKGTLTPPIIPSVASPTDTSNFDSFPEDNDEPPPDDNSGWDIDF

In assay [4] the target is Cyclin-dependent kinase 1 (Homo sapiens, UniProt P06493).
In assay [5] the target is T4, Exosome RNA helicase MTR4 (Homo sapiens, UniProt P42285).
T4 sequence (P42285 whole entry): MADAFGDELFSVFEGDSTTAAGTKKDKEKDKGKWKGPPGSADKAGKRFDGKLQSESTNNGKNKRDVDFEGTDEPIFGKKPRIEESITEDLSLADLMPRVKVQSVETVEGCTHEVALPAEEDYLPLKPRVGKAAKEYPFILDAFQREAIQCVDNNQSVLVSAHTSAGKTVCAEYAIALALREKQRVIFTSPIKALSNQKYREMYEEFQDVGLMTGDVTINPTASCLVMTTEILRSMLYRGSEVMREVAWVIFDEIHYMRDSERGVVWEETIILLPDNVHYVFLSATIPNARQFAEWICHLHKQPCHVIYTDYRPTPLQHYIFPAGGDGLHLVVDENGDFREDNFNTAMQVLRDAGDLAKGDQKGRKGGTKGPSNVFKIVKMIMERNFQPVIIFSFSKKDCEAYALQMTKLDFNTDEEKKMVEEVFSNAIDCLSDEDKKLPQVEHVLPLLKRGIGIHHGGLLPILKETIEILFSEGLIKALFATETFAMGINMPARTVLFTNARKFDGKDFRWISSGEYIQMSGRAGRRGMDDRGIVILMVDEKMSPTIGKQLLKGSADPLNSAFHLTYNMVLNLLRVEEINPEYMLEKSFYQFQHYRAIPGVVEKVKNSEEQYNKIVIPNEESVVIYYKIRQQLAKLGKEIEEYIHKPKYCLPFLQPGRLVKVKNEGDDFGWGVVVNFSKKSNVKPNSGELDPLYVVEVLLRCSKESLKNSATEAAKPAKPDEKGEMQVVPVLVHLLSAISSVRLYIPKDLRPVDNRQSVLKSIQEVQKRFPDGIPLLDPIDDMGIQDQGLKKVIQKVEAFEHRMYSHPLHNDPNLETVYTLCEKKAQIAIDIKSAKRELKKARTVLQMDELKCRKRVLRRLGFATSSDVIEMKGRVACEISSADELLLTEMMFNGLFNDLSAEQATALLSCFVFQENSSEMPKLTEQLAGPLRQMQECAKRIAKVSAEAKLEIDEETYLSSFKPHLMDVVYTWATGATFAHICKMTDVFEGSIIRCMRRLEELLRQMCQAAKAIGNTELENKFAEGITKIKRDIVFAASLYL

Assay [6] has as its target Mitogen-activated protein kinase 8 (Homo sapiens, UniProt P45983).
Note: in the data inactive means no Kd found up to 30 µM.

Chain of Mitogen-activated protein kinase 8 (P45983 whole entry): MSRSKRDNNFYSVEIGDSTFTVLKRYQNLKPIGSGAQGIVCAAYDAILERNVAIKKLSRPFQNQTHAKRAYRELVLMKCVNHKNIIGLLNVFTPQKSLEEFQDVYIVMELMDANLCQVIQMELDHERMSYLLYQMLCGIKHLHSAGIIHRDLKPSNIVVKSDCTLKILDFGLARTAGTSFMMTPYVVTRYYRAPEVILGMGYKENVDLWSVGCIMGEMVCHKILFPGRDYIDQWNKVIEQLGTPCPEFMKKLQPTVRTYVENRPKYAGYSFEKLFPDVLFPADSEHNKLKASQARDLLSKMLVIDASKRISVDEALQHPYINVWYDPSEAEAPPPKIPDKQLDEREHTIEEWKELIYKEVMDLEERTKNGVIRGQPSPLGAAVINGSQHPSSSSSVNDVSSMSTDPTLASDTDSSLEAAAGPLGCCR
Chain of Cyclin-dependent kinase 1 (P06493 whole entry): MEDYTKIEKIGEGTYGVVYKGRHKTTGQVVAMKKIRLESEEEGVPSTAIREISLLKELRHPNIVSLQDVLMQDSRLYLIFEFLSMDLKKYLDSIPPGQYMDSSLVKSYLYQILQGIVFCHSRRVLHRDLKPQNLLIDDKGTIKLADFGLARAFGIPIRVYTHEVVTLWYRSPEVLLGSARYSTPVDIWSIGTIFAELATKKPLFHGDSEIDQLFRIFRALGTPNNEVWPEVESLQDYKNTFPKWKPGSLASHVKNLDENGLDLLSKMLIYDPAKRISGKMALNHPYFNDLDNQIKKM

`CCS(=O)(=O)N1CC(CC#N)(n2cc(-c3ncnc4[nH]ccc34)cn2)C1` [BARICITINIB]: the Kd in assay [1], in assay [2], in assay [3], in assay [4], in assay [5] and in assay [6] was > 30 µM (inactive) in each case.

As for `COc1ccc(-c2ccc3c(N4CCOC[C@@H]4C)nc(N4CCOC[C@@H]4C)nc3n2)cc1CO` [AZD-8055], the Kd in assay [1], in assay [2], in assay [3], in assay [4], in assay [5] and in assay [6] was > 30 µM (inactive) each time.

For the molecule `CN1CC[C@@H](c2c(O)cc(O)c3c(=O)cc(-c4ccccc4Cl)oc23)[C@@H]1CO`, the Kd in assay [1] is > 30 µM (inactive); in assay [2], > 30 µM (inactive); in assay [3], > 30 µM (inactive); in assay [4], 4.23 µM (active); in assay [5], > 30 µM (inactive); in assay [6] it was > 30 µM (inactive).

Consider `C=CC(=O)N1CCC(Oc2cc3c(Nc4ccc(Cl)c(Cl)c4F)ncnc3cc2OC)CC1` [POZIOTINIB], for which the Kd in assay [1], in assay [2], in assay [3], in assay [4], in assay [5] and in assay [6] was > 30 µM (inactive) in each case.

In the case of `Cn1cc(-c2ccc3nnc(C(F)(F)c4ccc5ncccc5c4)n3n2)cn1` [JNJ-38877605], the Kd in assay [1], in assay [2], in assay [3], in assay [4], in assay [5] and in assay [6] was > 30 µM (inactive) in each case.

Regarding `Cc1ccc(-n2nc(C(C)(C)C)cc2NC(=O)NCc2cc(F)ccc2Oc2ccc3c(cnn3CCO)c2)cc1` [PEXMETINIB], the Kd in assay [1], in assay [2], in assay [3], in assay [4], in assay [5] and in assay [6] was > 30 µM (inactive) throughout.

For the molecule `Cc1c(F)cc(C(=O)NC2CC2)cc1-c1ccc(C(=O)NCC(C)(C)C)cn1` [LOSMAPIMOD], the Kd in assay [1], in assay [2], in assay [3], in assay [4], in assay [5] and in assay [6] was > 30 µM (inactive) throughout.

For `COc1cc(N2CCC(N3CCN(C)CC3)CC2)ccc1Nc1ncnc(Nc2ccccc2S(=O)(=O)C(C)C)n1` [ASP-3026], the Kd in assay [1], in assay [2], in assay [3], in assay [4], in assay [5] and in assay [6] was > 30 µM (inactive) in each case.

Consider `CNC(=O)c1ccc(-c2cnc3ncc(Cc4ccc5ncccc5c4)n3n2)cc1F` [CAPMATINIB], for which the Kd in assay [1], in assay [2], in assay [3], in assay [4], in assay [5] and in assay [6] was > 30 µM (inactive) each time.

Turning to `CNC(=O)c1ccc(C)c(-n2c(C)cc(OCc3ccc(F)cc3F)c(Br)c2=O)c1` [PH-797804], the Kd in assay [1], in assay [2], in assay [3], in assay [4], in assay [5] and in assay [6] was > 30 µM (inactive) in each case.

Turning to `C[C@@H](Nc1cc(F)cc(F)c1)c1cc(C(=O)N(C)C)cc2c(=O)cc(N3CCOCC3)oc12` [AZD-8186], the Kd in assay [1], in assay [2], in assay [3], in assay [4], in assay [5] and in assay [6] was > 30 µM (inactive) in each case.

For `CNC(=O)c1cc(Oc2ccc(NC(=O)Nc3ccc(Cl)c(C(F)(F)F)c3)c(F)c2)ccn1` [REGORAFENIB], the Kd in assay [1], in assay [2], in assay [3], in assay [4], in assay [5] and in assay [6] was > 30 µM (inactive) throughout.

Consider `COc1cc2nccc(Oc3ccc(NC(=O)Nc4cc(C)on4)c(Cl)c3)c2cc1OC` [TIVOZANIB], for which the Kd in assay [1], in assay [2], in assay [3], in assay [4], in assay [5] and in assay [6] was > 30 µM (inactive) in each case.

`CCCS(=O)(=O)Nc1ccc(F)c(C(=O)c2c[nH]c3ncc(-c4ccc(Cl)cc4)cc23)c1F` [VEMURAFENIB]: the Kd in assay [1], in assay [2], in assay [3], in assay [4], in assay [5] and in assay [6] was > 30 µM (inactive) each time.

With `N[C@@H]1CCCN(c2c(/C=C3\SC(=O)NC3=O)cccc2-c2ccccc2)C1`, the Kd in assay [1], in assay [2], in assay [3], in assay [4], in assay [5] and in assay [6] was > 30 µM (inactive) each time.

For `O=C(O)[C@]1(Cc2cccc(Nc3nccs3)n2)CC[C@@H](Oc2cccc(Cl)c2F)CC1` [MK-5108], the Kd in assay [1] was > 30 µM (inactive); in assay [2], > 30 µM (inactive); in assay [3], > 30 µM (inactive); in assay [4], > 30 µM (inactive); in assay [5], > 30 µM (inactive); in assay [6], 1.15 µM (active).

In the case of `COc1cc(OC)c(/C=C/S(=O)(=O)Cc2ccc(OC)c(NCC(=O)O)c2)c(OC)c1` [RIGOSERTIB], the Kd in assay [1], in assay [2], in assay [3], in assay [4], in assay [5] and in assay [6] was > 30 µM (inactive) throughout.

The term Kd denotes the constant that tells how readily two partners part at equilibrium.
